Experiments:
Assay type in all cases: in vivo
dandelion seeds [1] = assay: Greenhouse dandelion seed germination (in grass) test (Example 4); conditions: dandelion seeded in grass pots
Source text: (§1) The “weed emergence suppression assay” comprises:
(§2) applying an amount of a composition or the components thereof to a target area comprising pre-emergent undesired vegetation; and following application (e.g. after at least 7, 14 or 21 days from application) assessing emergence visually using a percentage rating scale from 100% (no undesired vegetation emergence) to 0% (complete undesired vegetation emergence=untreated control).
Dry FeHEDTA (micro-granular; Dissolvine H—Fe-13) was purchased from the company AkzoNobel. Corn gluten meal (Amaizeingly Green; N—P—K 10-0-0) and the mustard seed meal (Pescadero Gold; N—P—K 4.5-1.5-1.15) were purchased from AgGlobal (155, Gordon Baker Road, Suite 402,Toronto, ON M2H 3N7, Canada. www.buyagglobal.com) and Farm Fuel Inc (275 Coward Rd, Watsonville, Calif. 95076, USA. www.farmfuelinc.com), respectively. The corn gluten meal and mustard seed meal arrived in pellet form, but were ground and sieved through a mesh (sieve opening size 850 μm) before use to obtain a particle size of ≤850 μm. […]
(§3) Pots 4″ in size were filled with wetted potting media, grass (lawn) seeds (perennial rye grass) were spread until soil was completely covered with grass seeds (5 g/pot) and kept for 1 month until grass was grown. […] Number of emerged seedlings in each pot was recorded 14 days after application.

dandelion seeds [2] = assay: Greenhouse dandelion seed germination test, application on soil (Examples 1-3); conditions: soil pots; for Weed emergence suppression assay score: untreated = 0%
Source text: as §1, §2
(§4) Dry FeHEDTA (micro-granular; Dissolvine H—Fe-13) was purchased from the company AkzoNobel. Corn gluten meal (Amaizeingly Green; N—P—K 10-0-0) and the mustard seed meal (Pescadero Gold; N—P—K 4.5-1.5-1.15) were purchased from AgGlobal (155, Gordon Baker Road, Suite 402,Toronto, ON M2H 3N7, Canada. www.buyagglobal.com) and Farm Fuel Inc (275 Coward Rd, Watsonville, Calif. 95076, USA. www.farmfuelinc.com), respectively. The corn gluten meal and mustard seed meal arrived in pellet form, but were ground and sieved through a mesh (sieve opening size 850 μm) before use to obtain a particle size of ≤850 μm. FeHEDTA (4.8%) was mixed with 1% of drying agent (MICRO-CEL® E) and then mixed with fertilizer seed meal (corn gluten meal or mustard seed meal) (94.2%) and blended thoroughly until the formulation became homogeneous. The application rate was 100 g/m^2 for the combined treatment (94.2 g/m^2 for FSM and 4.8 g/m^2 for FeHEDTA), 4.8 g/m^2 for FeHEDTA treatment and 100 g/m^2 for FSM treatment. In the formulation, the respective FSM was simply blended with transition metal chelate and with other ingredients if applicable. Samples were usually prepared within 48 hours of treatment. All tests were done in the greenhouse.
Pots 4″ in size were filled with wetted potting media and dandelion seeds were spread (0.2 g of seeds/four pots in examples 1 and 2 and 0.25 g/4 pots in example 3) evenly over each pot and lightly watered 3 hrs before treating. Seeded pots were covered with a thin layer of potting soil and treatments were applied after seeding (e.g. just after seeding). Each treatment consisted with 4 replicates. All treatments were lightly watered as needed until the seedlings emerged. Number of emerged seedlings in each pot was recorded 7 or 21 days after treatment application.

[3] = system: grass (lawn), perennial rye grass; assay: Grass phytotoxicity / selective herbicide assay (Example 4)
Source text: The “selective herbicide assay” comprises:
applying an amount of a composition (or the components thereof) to a target area comprising pre-emergent undesired vegetation and desired vegetation; and
following application (e.g. after at least 7, 14 or 21 days from application) assessing separately undesired vegetation emergence and desired vegetation survival visually using a percentage rating scale from 0% (no undesired vegetation emergence/no desired vegetation survival) to 100% (complete undesired vegetation emergence/complete desired vegetation survival).
as §4, §3

SMILES: O=C([O-])CN(CCO)CCN(CC(=O)[O-])CC(=O)[O-].[Fe+3] [Dry FeHEDTA (B), FeHEDTA]
- Weed emergence suppression assay score (dandelion seeds [1]; 14 days after application, untreated = 0%): 2.63%
- Weed (dandelion) Seedling emergence: No of dandelion seedlings (14 days after application) (dandelion seeds [1]; untreated 76): 74
- Seedling emergence: No of seedlings (21 days after application) (dandelion seeds [2]; Example 1, 21 days after application, 100 g/m^2 combined or FSM, 4.8 g/m^2 FeHEDTA, untreated 42): 44
- Weed emergence suppression assay score (dandelion seeds [2]; Example 1, 21 days after application): −4.76%
- Seedling emergence: No of seedlings (21 days after application) (dandelion seeds [2]; Example 2, 21 days after application, 100 g/m^2 combined or FSM, 4.8 g/m^2 FeHEDTA, untreated 60): 76
- Weed emergence suppression assay score (dandelion seeds [2]; Example 2, 21 days after application): −26.66%
- Seedling emergence: No of seedlings 7 days after application (dandelion seeds [2]; Example 3, 7 days after application, 100 g/m^2 combined or FSM, 4.8 g/m^2 FeHEDTA, untreated 134): 59
- Weed emergence suppression assay score (dandelion seeds [2]; Example 3, 7 days after application): 55.07%
- Selective herbicide assay score ([3]; score on desired vegetation (grass)): 0%
- Grass phytotoxicty, 7 days after treatment ([3]; visual rating of grass damage, 7 days after treatment): 0
- Grass phytotoxicty, 14 days after treatment ([3]; visual rating of grass damage, 14 days after treatment): 0
